The source of these data is ChEMBL document CHEMBL4052759, “Discovery of DS79182026: A potent orally active hepcidin production inhibitor” (Bioorg Med Chem Lett, 2017).

pIC50: −log10 of the molar value.

One data set has as its system HepG2. Put plainly: Inhibition of human recombinant BMP6-stimulated hepcidin mRNA expression in human HepG2 cells after 6 hrs by qRT-PCR analysis. The format is functional, cell-based. The settings on record: HepG2, 6 h. (In general: Quantitative PCR measures a nucleic acid by following its amplification.)
A word on the pIC50: it is −log10 of the IC50, conventionally taken in molar units. As for `Cc1[nH]nc(-c2ccccn2)c1-c1ccc2c(NC(=O)OC(C)C)noc2c1`, the pIC50 is 6.80.
The same measure, in the same setting: for `COCc1n[nH]c(C)c1-c1ccc2c(NC(=O)OC)noc2c1` the value was 5.96; for `COC(=O)Nc1noc2cc(-c3c(C4CC4)n[nH]c3C)ccc12`, 6.68.
As to `CCc1n[nH]c(C)c1-c1ccc2c(NC(=O)OC)noc2c1`, the negative logarithm of the IC50 (pIC50) is 6.34.
Still for that read-out and setting: for `Cc1[nH]nc(C2CC2)c1-c1ccc2c(NC(=O)C3CC3)n[nH]c2c1` the value was 7.09; for `COC(=O)Nc1noc2cc(-c3c(C(C)C)n[nH]c3C)ccc12`, 6.04; for `O=C(Nc1n[nH]c2cc(-c3cnc4[nH]ccc4c3)ccc12)C1CC1`, 4.96.
Same read-out and setting: for `COC(=O)Nc1noc2cc(-c3c(-c4cccc(C(C)C)n4)n[nH]c3C)ccc12` the value was 5.59; for `COC(=O)Nc1noc2cc(-c3c(-c4cccc(OC)n4)n[nH]c3C)ccc12`, 6.40; for `O=C(Nc1n[nH]c2cc(-c3ccc4[nH]cnc4c3)ccc12)C1CC1`, less than 5.52.
On to `COC(=O)Nc1noc2cc(-c3c(C(C)(C)C)n[nH]c3C)ccc12`, for which the negative-log IC50 (pIC50) was less than 5.00.
On to `O=C(Nc1n[nH]c2cc(-c3ccncc3)ccc12)C1CC1`, for which the pIC50 was 5.14.
In the case of `COC(=O)Nc1noc2cc(-c3c(-c4ccncn4)n[nH]c3C)ccc12`, the pIC50 was 5.54.
As to `COC(=O)Nc1noc2cc(-c3c(-c4cc(C)ccn4)n[nH]c3C)ccc12`, the pIC50 was 5.59.
In the case of `CCOC(=O)Nc1noc2cc(-c3c(-c4ccccn4)n[nH]c3C)ccc12`, the negative-log IC50 (pIC50) is 7.40.
Still for that read-out and setting: next, `COCCOC(=O)Nc1noc2cc(-c3c(-c4ccccn4)n[nH]c3C)ccc12`: 7.16; `COC(=O)Nc1noc2cc(-c3c(-c4cnccn4)n[nH]c3C)ccc12`: 6.68; `Cc1n[nH]c(C)c1-c1ccc2c(NC(=O)c3ccc(OCCN4CCCCC4)cc3)n[nH]c2c1`: 6.59.
Still for that read-out and setting: for `CNC(=O)c1n[nH]c(C)c1-c1ccc2c(NC(=O)OC)noc2c1` the value was 5.36; for `COC(=O)Nc1noc2cc(-c3c(C(C)O)n[nH]c3C)ccc12` (centres undefined), 5.92; for `COC(=O)Nc1noc2cc(-c3c(C(=O)OC)n[nH]c3C)ccc12`, 5.54.
On the same count and under the same terms, next, `COC(=O)Nc1noc2cc(-c3c(-c4ncccc4C)n[nH]c3C)ccc12`: 5.32.
Take `Cc1n[nH]c(C)c1-c1ccc2c(NC(=O)C3CC3)n[nH]c2c1`: the pIC50 is 6.48.
On the same count and under the same terms, next, `Cc1[nH]nc(-c2ccccn2)c1-c1ccc2c(NC(=O)OCCF)noc2c1`: 7.33.
Take `Cc1[nH]nc(C2CC2)c1-c1ccc2c(N)noc2c1`: the pIC50 was 5.85.
Still for that read-out and setting: for `O=C(Nc1n[nH]c2cc(-c3ccc(O)cc3)ccc12)C1CC1` the value was 6.40; for `O=C1Cc2cc(-c3ccc4c(NC(=O)C5CC5)n[nH]c4c3)ccc2N1`, less than 4.52.
Same read-out and setting: for `COC(=O)Nc1noc2cc(-c3c(-c4cccnn4)n[nH]c3C)ccc12` the value was 6.46; for `COC(=O)Nc1noc2cc(-c3c(-c4cccc(C)n4)n[nH]c3C)ccc12`, 7.38; for `O=C(Nc1n[nH]c2cc(-c3cc[nH]c3)ccc12)C1CC1`, less than 4.52.
On the same count and under the same terms, next, `COC(=O)Nc1noc2cc(-c3c(C)n[nH]c3C)ccc12`: 6.24; `Cc1noc(C)c1-c1ccc2c(NC(=O)C3CC3)n[nH]c2c1`: 6.00.
On to `O=C(Nc1n[nH]c2cc(-c3ccc(O)cc3)ccc12)c1ccc(OCCN2CCOCC2)cc1`, for which the pIC50 is 6.89.
On the same count and under the same terms, next, `CCNC(=O)Nc1noc2cc(-c3c(C4CC4)n[nH]c3C)ccc12`: 6.14.
On the same count and under the same terms, next, `COC(=O)Nc1noc2cc(-c3c(-c4ccccc4)n[nH]c3C)ccc12`: 6.27.

System in the next data set: not listed separately
Kind of data set: Metabolic stability in mouse liver microsomes assessed as […] by measuring parent compound remaining at 1 uM after 0.5 hrs by LC-MS/MS analysis. The data set is classed as ADME. The settings on record: read-out: Stability.
As for `O=C(Nc1n[nH]c2cc(-c3ccc(O)cc3)ccc12)c1ccc(OCCN2CCOCC2)cc1`, the remaining at 0.5 h, 1 µM is 76%.

System in another data set: not listed separately
Put plainly: Cmax in C57BL/6J mouse at 30 mg/kg, po by LC-MS/MS analysis. Set-up: dose 30 mg/kg, route oral. The settings on record: in vivo. The format is ADME, organism-based.
Usually Cmax stands for the peak of the concentration-time curve. In the case of `O=C(Nc1n[nH]c2cc(-c3ccc(O)cc3)ccc12)c1ccc(OCCN2CCOCC2)cc1`, the concentration peaked (Cmax) at 320 ng/mL.

System in the next data set: not listed separately
Kind of data set: Tmax in C57BL/6J mouse at 30 mg/kg, po by LC-MS/MS analysis. The data set is classed as ADME, organism-based. The settings on record: in vivo.
What is called Tmax is the time at which the peak concentration occurs. With `O=C(Nc1n[nH]c2cc(-c3ccc(O)cc3)ccc12)c1ccc(OCCN2CCOCC2)cc1`, the Tmax is 1.5 h.

System in a further data set: not listed separately
Put plainly: AUC in C57BL/6J mouse at 30 mg/kg, po by LC-MS/MS analysis. To be noted: in vivo. The format is ADME, organism-based.
As usually defined, the AUC is concentration integrated over time. The low end stands for low exposure, the high end for high exposure. Compound `O=C(Nc1n[nH]c2cc(-c3ccc(O)cc3)ccc12)c1ccc(OCCN2CCOCC2)cc1` had an AUC of 890 ng·h/mL.
